The subject of series [1] is HIV-1 vectors that carry WT IN. In words: Single-round HIV-1 replication antiviral assay, wild-type IN. It counts as cell-based. To be noted: for Ratio of the antiviral potencies after and before hydrogenation (WT): EC50 of saturated 7 over EC50 of unsaturated 6, WT IN; for EC50: 48 h. As for the experimental part: The bicyclic metal chelating carbamoyl pyridone moiety is common to second-generation tricyclic INSTIs (3, 4, and 5, Figure 1). Analogs of the current study are simplified analogs that lack a third ring. […] The halogen substitution pattern of the benzylamide moiety can affect inhibitory potencies of INSTIs. We determined the antiviral potencies of our compounds in single round HIV-1 replication assays using viral constructs with wild-type IN [31]. Cytotoxicities were determined as previously described. […] In general, the potencies of bicyclic analogs 6 having an unsaturated bond at the C4 position were insensitive to differences in N-methyl substituents. […] Analogs 6g and 6h represent simplified analogs of DTG (3) and CAB (5), respectively, in which the third ring (C-ring) is opened and having doble bond in B-ring, but lacking α-methyl stereochemistry.
Human embryonic kidney cell culture cell line 293 was acquired from the American Type Culture Collection (ATCC). The human osteosarcoma cell line, HOS, was obtained from Dr. Richard Schwartz (Michigan State University, East Lansing, MI, USA) and grown in Dulbecco’s modified Eagle’s medium (Invitrogen, Carlsbad, CA, USA) supplemented with 5% (v/v) fetal bovine serum, 5% newborn calf serum, and penicillin (50 units/mL) plus streptomycin (50 µg/mL; Quality Biological, Gaithersburg, MD, USA). The transfection vector, pNLNgoMIVR-ΔLUC was made from pNLNgoMIVR-ΔEnv.HSA by removing the HSA reporter gene and replacing it with a luciferase reporter gene between the NotI and XhoI restriction sites. To produce the new IN mutant S230N used in this study, the IN open reading frame was removed from pNLNgoMIVR-ΔENV.LUC by digestion with KpnI and SalI, and the resulting fragment was inserted between the KpnI and SalI sites of pBluescript KS+. Using that construct as the wild-type template, we prepared the following HIV-1 IN mutant S230N using the QuikChange II XL site-directed mutagenesis kit (Agilent Technologies, Santa Clara, CA, USA) protocol. The following sense oligonucleotides were used with matching cognate antisense oligonucleotides (not shown) (Integrated DNA Technologies, Coralville, IA, USA) in the mutagenesis: S230N 5′-[…]-3′. The DNA sequence of the IN mutant S230N construct was verified independently by DNA sequence determination. The mutated IN coding sequences from pBluescript KS+ were then subcloned into pNLNgoMIVR-ΔEnv.LUC (between the KpnI and SalI sites) to produce mutant HIV-1 constructs, which were also checked by DNA sequencing. […]. On the day prior to transfection, 293 cells were plated on 100 mm diameter dishes at a density of 1.5 × 10^6 cells per plate. Next, 293 cells were transfected with 16 µg of pNLNgoMIVR^-ΔLUC and 4 µg of pHCMV-g (obtained from Dr. Jane Burns, University of California, San Diego) using the calcium phosphate method. At approximately 6 h after the calcium phosphate precipitate was added, 293 cells were washed twice with phosphate-buffered saline (PBS) and incubated with fresh media for 48 h. The virus-containing supernatants were then harvested, clarified by low-speed centrifugation, filtrated, and diluted for preparation in antiviral infection assays. On the day prior to the screen, HOS cells were seeded in a 96-well luminescence cell culture plate at a density of 4000 cells in 100 µL per well. On the day of the screen for cellular cytotoxicity determination, cells were treated with compounds from a concentration range of 250 µM to 0.05 µM and then incubated at 37 °C for 48 h. On the day of the screen for antiviral activity infection assays, cells were treated with compounds from a concentration range of 5 µM to 0.0001 µM using 11 serial dilutions and then incubated at 37 °C for 3 h. After compound incorporation and activation in the cell, 100 µL of virus-stock (WT or mutant) diluted to achieve a luciferase signal between 0.2 and 1.5 Relative Luciferase Units (RLUs) was added to each well and further incubated at 37 °C for 48 h. […]

[2] abbreviates: Human immunodeficiency virus 1, HOS, read-out: EC50, antiviral potency, WT IN, VSV-g-pseudotyped HIV-1 luciferase vector with WT IN, HOS cells, 48 h.
[3] abbreviates: read-out: EC50, antiviral potency, WT IN, VSV-g-pseudotyped HIV-1 luciferase vector with WT IN, HOS cells.

Read-outs that look alike come from different tables or passages of the source.

For the compound `O=C(NCc1ccc(F)cc1F)c1cn2c(c(O)c1=O)C(=O)N(CCCCO)CC2` [Compound 7e, N-(2,4-Difluorobenzyl)-9-hydroxy-2-(4-hydroxybutyl)-1,8-dioxo-1,3,4,8-tetrahydro-2H-pyrido [1,2-a]pyrazine-7-carboxamide], the melting point (commonly the temperature, or range, at which the solid turns liquid) lay within 210 to 215 °C. Also, the “Ratio of the antiviral potencies after and before hydrogenation (WT)” value in series [1] is recorded as 4.6. The EC50 – broadly, the concentration needed to bring the measured effect to its halfway point – in series [1] (setting [2]) worked out at 75.7 ± 7.4 nM.
Consider `O=C(NCc1ccc(F)cc1F)c1cn2ccn(CCCCO)c(=O)c2c(O)c1=O` [Compound 6e, N-(2,4-Difluorobenzyl)-9-hydroxy-2-(4-hydroxybutyl)-1,8-dioxo-1,8-dihydro-2H-pyrido [1,2-a]pyrazine-7-carboxamide], for which the 50% effective concentration (EC50) in series [1] (setting [2]) is ~17 nM; in series [1] (setting [3]), 16.6 ± 2 nM.
For the compound `O=C(NCc1ccc(F)cc1F)c1cn2c(c(O)c1=O)C(=O)N(CCCCCCO)CC2` [Compound 7c, N-(2,4-Difluorobenzyl)-9-hydroxy-2-(6-hydroxyhexyl)-1,8-dioxo-1,3,4,8-tetrahydro-2H-pyrido [1,2-a]pyrazine-7-carboxamide], the melting point was 208 to 210 °C. Besides, the “Ratio of the antiviral potencies after and before hydrogenation (WT)” value in series [1] came to 6.6. Besides, the 50% effective concentration (EC50) in series [1] (setting [2]) worked out at 31.7 ± 3.8 nM.
Consider `O=C(NCc1ccc(F)cc1F)c1cn2ccn(CCCCCO)c(=O)c2c(O)c1=O` [Compound 6d, N-(2,4-Difluorobenzyl)-9-hydroxy-2-(5-hydroxypentyl)-1,8-dioxo-1,8-dihydro-2H-pyrido [1,2-a]pyrazine-7-carboxamide], for which the EC50 in series [1] (setting [2]) is ~11 nM; in series [1] (setting [3]), 10.8 ± 1.7 nM.
For the compound `O=C(NCc1ccc(F)cc1F)c1cn2ccn(CCCCCCO)c(=O)c2c(O)c1=O` [Compound 6c, N-(2,4-Difluorobenzyl)-9-hydroxy-2-(6-hydroxyhexyl)-1,8-dioxo-1,8-dihydro-2H-pyrido [1,2-a]pyrazine-7-carboxamide], in series [1] (setting [2]), the EC50 worked out at 4.8 ± 0.9 nM.

Source of the values: article PMC9919513, “A Practical Approach to Bicyclic Carbamoyl Pyridones with Application to the Synthesis of HIV-1 Integrase Strand Transfer Inhibitors” (Molecules, 2023).
